In brackets after ≈: the same amount, converted by molar mass. Activity calls are given as the source filed them. The calls are words filed in the database; no cut-off is given here.
Key:
Cryptococcus neoformans = assay: Antifungal activity against Cryptococcus neoformans assessed as reduction in fungal cell growth incubated for 48 hrs by serial dilution method; format: functional
[1] = target: Acetylcholinesterase (Electrophorus electricus) (UniProt O42275); assay: Inhibition of electric eel AChE by at 1 mg/ml Ellman's colorimetry relative to control
Sequence of Acetylcholinesterase (Electrophorus electricus) (O42275 24-633 limits assumed): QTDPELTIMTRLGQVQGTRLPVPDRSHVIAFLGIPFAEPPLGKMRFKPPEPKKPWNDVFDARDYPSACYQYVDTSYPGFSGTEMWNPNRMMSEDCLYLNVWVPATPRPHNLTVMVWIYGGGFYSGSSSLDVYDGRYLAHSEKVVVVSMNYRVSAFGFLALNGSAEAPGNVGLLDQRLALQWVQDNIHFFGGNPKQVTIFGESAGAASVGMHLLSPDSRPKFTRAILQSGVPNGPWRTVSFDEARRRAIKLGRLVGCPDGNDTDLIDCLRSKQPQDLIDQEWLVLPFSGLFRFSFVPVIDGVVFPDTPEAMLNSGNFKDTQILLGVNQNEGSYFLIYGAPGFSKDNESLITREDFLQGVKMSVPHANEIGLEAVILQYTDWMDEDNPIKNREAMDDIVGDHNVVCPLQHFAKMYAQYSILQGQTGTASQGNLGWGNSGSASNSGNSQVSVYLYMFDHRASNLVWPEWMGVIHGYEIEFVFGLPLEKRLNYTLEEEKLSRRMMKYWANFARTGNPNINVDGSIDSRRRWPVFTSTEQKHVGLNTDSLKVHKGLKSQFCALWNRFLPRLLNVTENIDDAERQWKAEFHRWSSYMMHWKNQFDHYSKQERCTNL

Pseudomonas aeruginosa = assay: Antibacterial activity against Pseudomonas aeruginosa assessed as reduction in bacterial cell growth incubated for 24 hrs by filter paper assay; format: functional
Staphylococcus aureus = assay: Antibacterial activity against Staphylococcus aureus assessed as reduction in bacterial cell growth incubated for 24 hrs by filter paper assay; format: functional
Ralstonia solanacearum = assay: Antibacterial activity against Ralstonia solanacearum assessed as reduction in bacterial cell growth incubated for 24 hrs by filter paper assay; format: functional
Penicillium citrinum = assay: Antifungal activity against Penicillium citrinum assessed as reduction in fungal cell growth incubated for 48 hrs by serial dilution method; format: functional
[2] = system: Fusarium oxysporum f. sp. vasinfectum; assay: Antifungal activity against Fusarium oxysporum sp. vasinfectum assessed as reduction in fungal cell growth incubated for 48 hrs by serial dilution method; format: functional
Acetylcholinesterase = Acetylcholinesterase (Electrophorus electricus, UniProt O42275); assay: Inhibition of electric eel AChE by Ellman's colorimetry
Sequence of Acetylcholinesterase (O42275 whole entry): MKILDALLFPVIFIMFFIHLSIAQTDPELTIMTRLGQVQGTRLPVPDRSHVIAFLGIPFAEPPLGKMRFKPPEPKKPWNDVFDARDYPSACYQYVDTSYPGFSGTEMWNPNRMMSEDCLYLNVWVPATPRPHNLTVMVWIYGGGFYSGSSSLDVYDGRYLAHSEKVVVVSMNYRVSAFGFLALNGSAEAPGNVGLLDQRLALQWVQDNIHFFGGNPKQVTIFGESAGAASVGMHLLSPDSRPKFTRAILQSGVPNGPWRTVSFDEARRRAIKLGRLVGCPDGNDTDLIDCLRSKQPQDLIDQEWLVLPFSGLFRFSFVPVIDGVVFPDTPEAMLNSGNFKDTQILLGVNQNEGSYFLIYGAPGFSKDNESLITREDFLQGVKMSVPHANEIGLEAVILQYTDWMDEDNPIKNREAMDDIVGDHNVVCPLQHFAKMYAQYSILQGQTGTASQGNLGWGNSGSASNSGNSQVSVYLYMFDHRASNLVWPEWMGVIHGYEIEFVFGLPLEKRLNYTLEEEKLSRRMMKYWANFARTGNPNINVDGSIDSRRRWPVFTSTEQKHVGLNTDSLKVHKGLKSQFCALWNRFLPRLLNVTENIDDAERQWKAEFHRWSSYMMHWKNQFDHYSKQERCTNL

Bacillus cereus = assay: Antibacterial activity against Bacillus cereus assessed as reduction in bacterial cell growth incubated for 24 hrs by filter paper assay; format: functional
Curvularia lunata [3] = assay: Antifungal activity against Curvularia lunata assessed as reduction in fungal cell growth incubated for 48 hrs by serial dilution method; format: functional
Cytospora = assay: Antifungal activity against Cytospora juglandis assessed as reduction in fungal cell growth incubated for 48 hrs by serial dilution method; format: functional
Candida [4] = assay: Antifungal activity against […] assessed as reduction in fungal cell growth incubated for 48 hrs by serial dilution method; format: functional
Fusarium oxysporum = assay: Antifungal activity against Fusarium oxysporum assessed as reduction in fungal cell growth incubated for 48 hrs by serial dilution method; format: functional
Aspergillus niger = assay: Antifungal activity against Aspergillus niger assessed as reduction in fungal cell growth incubated for 48 hrs by serial dilution method; format: functional
Escherichia coli = assay: Antibacterial activity against Escherichia coli assessed as reduction in bacterial cell growth incubated for 24 hrs by filter paper assay; format: functional
Candida tropicalis = assay: Antifungal activity against Candida tropicalis assessed as reduction in fungal cell growth incubated for 48 hrs by serial dilution method; format: functional
Aspergillus flavus = assay: Antifungal activity against Aspergillus flavus assessed as reduction in fungal cell growth incubated for 48 hrs by serial dilution method; format: functional
Verticillium dahliae [5] = assay: Antifungal activity against Verticillium dahliae assessed as reduction in fungal cell growth incubated for 48 hrs by serial dilution method; format: functional
[6] = system: Colletotrichum orbiculare; assay: Antifungal activity against Colletotrichum orbiculare assessed as reduction in fungal cell growth incubated for 48 hrs by serial dilution method; format: functional
Verticillium dahliae [7] = assay: Antifungal activity against Verticillium dahliae assessed as reduction in fungal cell growth at 31.25 ug/ml incubated for 48 hrs by serial dilution method relative to control; format: functional
Verticillium dahliae [8] = assay: Antifungal activity against Verticillium dahliae assessed as reduction in fungal cell growth at 125 ug/ml incubated for 48 hrs by serial dilution method relative to control; format: functional
Verticillium dahliae [9] = assay: Antifungal activity against Verticillium dahliae assessed as reduction in fungal cell growth at 62.5 ug/ml incubated for 48 hrs by serial dilution method relative to control; format: functional
Verticillium dahliae [10] = assay: Antifungal activity against Verticillium dahliae assessed as reduction in fungal cell growth at 250 ug/ml incubated for 48 hrs by serial dilution method relative to control; format: functional
Candida [11] = assay: Antifungal activity against […] assessed as reduction in fungal spore germination at 500 ug/ml relative to control; format: functional
Curvularia lunata [12] = assay: Antifungal activity against Curvularia lunata assessed as reduction in fungal spore germination at 125 ug/ml relative to control; format: functional

Compound	MIC (Cryptococcus neoformans)	inhibition [1]	MIC (Pseudomonas aeruginosa)	MIC (Staphylococcus aureus)	MIC (Ralstonia solanacearum)	MIC (Penicillium citrinum)	MIC [2]	IC50 (Acetylcholinesterase)	MIC (Bacillus cereus)	MIC (Curvularia lunata [3])	MIC (Cytospora)	MIC (Candida [4])	MIC (Fusarium oxysporum)	MIC (Aspergillus niger)	MIC (Escherichia coli)	MIC (Candida tropicalis)	MIC (Aspergillus flavus)	MIC (Verticillium dahliae [5])	MIC [6]	further results
CN1c2ccccc2C2(O)CCCN(C(=O)c3ccccc3)C12 (stereo not drawn)	inactive	> 80%	250 µg/mL (≈ 811 µM)	250 µg/mL (≈ 811 µM)	62.5 µg/mL (≈ 203 µM)	inactive	inactive	259 nM	inactive	inactive	inactive	inactive	inactive	inactive	250 µg/mL (≈ 811 µM)	250 µg/mL (≈ 811 µM)	inactive	inactive	inactive	–
CCC(=O)N1CCCC2(O)c3ccccc3N(C)C12 (stereo not drawn)	inactive	> 80%	250 µg/mL (≈ 960 µM)	inactive	31.2 µg/mL (≈ 120 µM)	inactive	inactive	0.0384 nM	inactive	inactive	inactive	inactive	inactive	inactive	inactive	inactive	inactive	250 µg/mL (≈ 960 µM)	inactive	–
CCCCCC(=O)N1CCCC2(O)c3ccccc3N(C)C12 (stereo not drawn)	250 µg/mL (≈ 827 µM)	> 80%	250 µg/mL (≈ 827 µM)	125 µg/mL (≈ 413 µM)	125 µg/mL (≈ 413 µM)	inactive	250 µg/mL (≈ 827 µM)	7570 nM	inactive	250 µg/mL (≈ 827 µM)	125 µg/mL (≈ 413 µM)	inactive	250 µg/mL (≈ 827 µM)	250 µg/mL (≈ 827 µM)	250 µg/mL (≈ 827 µM)	inactive	inactive	125 µg/mL (≈ 413 µM)	250 µg/mL (≈ 827 µM)	–
Cc1cccc(CN2c3ccccc3C3(Cc4cccc(C)c4)CCN(S(=O)(=O)c4ccccc4)C23)c1 (stereo not drawn)	inactive	> 80%	125 µg/mL (≈ 246 µM)	inactive	inactive	inactive	250 µg/mL (≈ 491 µM)	2810 nM	125 µg/mL (≈ 246 µM)	inactive	250 µg/mL (≈ 491 µM)	250 µg/mL (≈ 491 µM)	250 µg/mL (≈ 491 µM)	250 µg/mL (≈ 491 µM)	250 µg/mL (≈ 491 µM)	125 µg/mL (≈ 246 µM)	250 µg/mL (≈ 491 µM)	31.2 µg/mL (≈ 61.4 µM)	250 µg/mL (≈ 491 µM)	–
CCCCCCCC(=O)N1CCC2(Cc3ccccc3C)c3ccccc3N(Cc3ccccc3C)C12 (stereo not drawn)	62.5 µg/mL (≈ 126 µM)	–	125 µg/mL (≈ 253 µM)	125 µg/mL (≈ 253 µM)	62.5 µg/mL (≈ 126 µM)	250 µg/mL (≈ 505 µM)	250 µg/mL (≈ 505 µM)	16500 nM	62.5 µg/mL (≈ 126 µM)	125 µg/mL (≈ 253 µM)	125 µg/mL (≈ 253 µM)	31.2 µg/mL (≈ 63.2 µM)	125 µg/mL (≈ 253 µM)	250 µg/mL (≈ 505 µM)	125 µg/mL (≈ 253 µM)	125 µg/mL (≈ 253 µM)	250 µg/mL (≈ 505 µM)	31.2 µg/mL (≈ 63.2 µM)	250 µg/mL (≈ 505 µM)	inhibition at 31.25 µg/mL (Verticillium dahliae [7]): 46.2%; inhibition at 125 µg/mL (Verticillium dahliae [8]): 63.4%; inhibition at 62.5 µg/mL (Verticillium dahliae [9]): 47%; inhibition at 250 µg/mL (Verticillium dahliae [10]): 67.7%
CCCCCCCC(=O)N1CCC2(Cc3cccc(C)c3)c3ccccc3N(Cc3cccc(C)c3)C12 (stereo not drawn)	125 µg/mL (≈ 253 µM)	–	125 µg/mL (≈ 253 µM)	125 µg/mL (≈ 253 µM)	62.5 µg/mL (≈ 126 µM)	250 µg/mL (≈ 505 µM)	250 µg/mL (≈ 505 µM)	87900 nM	62.5 µg/mL (≈ 126 µM)	125 µg/mL (≈ 253 µM)	125 µg/mL (≈ 253 µM)	31.2 µg/mL (≈ 63.2 µM)	125 µg/mL (≈ 253 µM)	250 µg/mL (≈ 505 µM)	250 µg/mL (≈ 505 µM)	125 µg/mL (≈ 253 µM)	250 µg/mL (≈ 505 µM)	62.5 µg/mL (≈ 126 µM)	250 µg/mL (≈ 505 µM)	inhibition at 500 µg/mL (Candida [11]): 87.5%
Cc1ccccc1CN1c2ccccc2C2(Cc3ccccc3C)CCN(S(=O)(=O)c3ccccc3)C12 (stereo not drawn)	inactive	> 80%	inactive	inactive	inactive	inactive	250 µg/mL (≈ 491 µM)	275 nM	125 µg/mL (≈ 246 µM)	inactive	250 µg/mL (≈ 491 µM)	250 µg/mL (≈ 491 µM)	250 µg/mL (≈ 491 µM)	250 µg/mL (≈ 491 µM)	inactive	inactive	250 µg/mL (≈ 491 µM)	125 µg/mL (≈ 246 µM)	250 µg/mL (≈ 491 µM)	inhibition (Curvularia lunata [12]): Active
CN1c2ccccc2C2(O)CCCN(C(=O)c3ccc(F)cc3)C12 (stereo not drawn)	inactive	> 80%	250 µg/mL (≈ 766 µM)	250 µg/mL (≈ 766 µM)	125 µg/mL (≈ 383 µM)	250 µg/mL (≈ 766 µM)	250 µg/mL (≈ 766 µM)	0.306 nM	inactive	125 µg/mL (≈ 383 µM)	250 µg/mL (≈ 766 µM)	inactive	250 µg/mL (≈ 766 µM)	inactive	250 µg/mL (≈ 766 µM)	250 µg/mL (≈ 766 µM)	250 µg/mL (≈ 766 µM)	250 µg/mL (≈ 766 µM)	250 µg/mL (≈ 766 µM)	–
CC(C)C(=O)N1CCCC2(O)c3ccccc3N(C)C12 (stereo not drawn)	inactive	> 80%	250 µg/mL (≈ 911 µM)	inactive	inactive	inactive	inactive	510 nM	inactive	inactive	inactive	inactive	inactive	inactive	inactive	inactive	inactive	250 µg/mL (≈ 911 µM)	inactive	–
Cc1ccc(C(=O)N2CCCC3(O)c4ccccc4N(C)C23)cc1 (stereo not drawn)	inactive	> 80%	250 µg/mL (≈ 775 µM)	inactive	inactive	inactive	inactive	2850 nM	inactive	inactive	inactive	inactive	inactive	inactive	inactive	inactive	inactive	250 µg/mL (≈ 775 µM)	inactive	–
Cc1ccc(S(=O)(=O)N2CCC3(Cc4ccccc4C)c4ccccc4N(Cc4ccccc4C)C23)cc1 (stereo not drawn)	inactive	> 80%	inactive	250 µg/mL (≈ 478 µM)	250 µg/mL (≈ 478 µM)	inactive	250 µg/mL (≈ 478 µM)	210 nM	inactive	inactive	250 µg/mL (≈ 478 µM)	250 µg/mL (≈ 478 µM)	250 µg/mL (≈ 478 µM)	250 µg/mL (≈ 478 µM)	250 µg/mL (≈ 478 µM)	250 µg/mL (≈ 478 µM)	250 µg/mL (≈ 478 µM)	62.5 µg/mL (≈ 120 µM)	250 µg/mL (≈ 478 µM)	–

— ChEMBL document CHEMBL4304804, “Synthesis and biological evaluation of calycanthaceous alkaloid analogs” (Bioorg Med Chem, 2019)
